Test results taken from article PMC6764291 (Frontiers in Oncology, 2019).
“Also recorded” adds a separate entry of the source. Read-outs that look alike come from different tables or passages of the source.

Assays:
[1] = system: Noxa; test: Flow cytometry Noxa expression, HCT116; format: cell-based
Procedure: (§1) Cells were irradiated using ^137Cs gamma-ray photons at a dose-rate of ~1 Gy/min (Best Theratronics Gammacell® 40Exactor, Springfield, USA).
(§2) Cells were collected and fixed in 70% ethanol at 6, 12, 24, 48, 72, and 96 h post-irradiation and stored at −20°C. For cell cycle analyses, 6, 12, 24, and 48 h samples were rehydrated and washed twice with PBS and stained with DAPI (Sigma Aldrich Sweden, Stockholm, Sweden) using 1 μg/ml for 30 min. 24, 48, 72, and 96 h samples were stained with caspase-3 and Noxa (ab13847 (1:500) and ab13654 (1:1,000), AbCam, Cambridge, UK) overnight at 4°C, followed by incubation with fluorescent labeled secondary antibodies for 90 min (ab 1:400) at room temperature. Analyses were performed using a BD LSR Fortessa flow cytometer (Becton Dickinson Biosciences, San Jose, USA). Data analyses for cleaved caspase-3 and Noxa were performed with BD FACSDiVa (Becton Dickinson Biosciences, San Jose, USA), while cell cycle analyses of exclusively viable cells were performed using FlowJo (Becton, Dickinson Biosciences, San Jose, USA). Coefficient of variation (CV) values, were below seven for all samples.

[2] = system: UM-SCC-74B; test: Cell cycle analysis by flow cytometry, UM-SCC-74B; format: cell-based, human; settings: for G2/M-phase / S-phase: viable cells, DAPI
Procedure: as §1, §2

[3] = system: HCT116; test: XTT cell viability, HCT116; format: cell-based
Procedure: (§3) The human squamous cell carcinoma cell lines UM-SCC-74A and UM-SCC-74B were kindly provided by Professor TE Carey (University of Michigan, USA) and cultured in Dulbecco's Modified Eagle Medium (DMEM) with 10% fetal bovine serum, 1% L-glutamine, 1% antibiotics (100 IU penicillin and 100 μg/ml streptomycin) as well as 1% non-essential amino acids (all from Biochrom Kg, Berlin, Germany). UT-SCC-45 (kindly provided by Dr. R. Grenman, Turku University Central Hospital, Finland) was cultured in DMEM with the abovementioned additives. HCT116 and A431 were purchased from American Type Culture Collection (Manassas, VA, USA). HCT116 was cultured in McCoy's modified Eagle medium with 10% fetal bovine serum, 1% L-glutamine and 1% antibiotics (100 IU penicillin and 100 μg/ml streptomycin) and A431 was cultured in Ham's F10 with the same additives. H314 was purchased from the European Collection of Authenticated Cell Cultures (Salisbury, UK) in DMEM/Ham's F12 (1:1) with the abovementioned additives. Cells were incubated at 37°C with 5% CO2, and cultivated for no longer than 2 months at a time.
as §1
(§4) Five-hundred to ten thousands cells were seeded in flat-bottomed 96-well plates and incubated for 48 h prior to irradiation with 2Gy. […] Cells were incubated at 37° for 4–5 days until 80–90% confluence had been obtained. A mix of XTT Activation Reagent and XTT Reagent was added according to the American Type Culture Collection 30–1011 K protocol (Manassas, VA, USA). Plates were incubated for up to 6 h at 37° and absorbance was measured by using a BioMark Microplate Reader (Bio-Rad Laboratories AB, Solna, Sweden).
(§5) GraphPad Prism version 6.07 (GraphPad Software, San Diego, USA) was used for data processing and analysis. p-values were determined using unpaired student's t-test for comparison between two groups or one-way ANOVA followed by Tukey's multiple comparisons test, with p < 0.05 (^*), p < 0.01 (^**), p < 0.001 (^***), and p < 0.0001 (^****). For XTT assays cell viability was normalized for irradiated and unirradiated samples separately. […] CDI ≤ 0.7 equaled significant synergistic effect, CDI ≤ 1 equaled additive effect and CDI > 1 equaled antagonistic effect ([29]).

[4] = system: UM-SCC-74B; test: XTT cell viability, UM-SCC-74B; format: cell-based, human
Procedure: as §3, §1, §4, §5

[5] = system: A431; test: XTT cell viability, A431; format: cell-based; settings: n ≥ 4
Procedure: The human squamous cell carcinoma cell lines UM-SCC-74A and UM-SCC-74B were kindly provided by Professor TE Carey (University of Michigan, USA) and cultured in Dulbecco's Modified Eagle Medium (DMEM) with 10% fetal bovine serum, 1% L-glutamine, 1% antibiotics (100 IU penicillin and 100 μg/ml streptomycin) as well as 1% non-essential amino acids (all from Biochrom Kg, Berlin, Germany). UT-SCC-45 (kindly provided by Dr. R. Grenman, Turku University Central Hospital, Finland) was cultured in DMEM with the abovementioned additives. HCT116 and A431 were purchased from American Type Culture Collection (Manassas, VA, USA). […]
Five-hundred to ten thousands cells were seeded in flat-bottomed 96-well plates and incubated for 48 h prior to irradiation with 2Gy. […] Plates were incubated for up to 6 h at 37° and absorbance was measured by using a BioMark Microplate Reader (Bio-Rad Laboratories AB, Solna, Sweden).
GraphPad Prism version 6.07 (GraphPad Software, San Diego, USA) was used for data processing and analysis. p-values were determined using unpaired student's t-test for comparison between two groups or one-way ANOVA followed by Tukey's multiple comparisons test, with p < 0.05 (^*), p < 0.01 (^**), p < 0.001 (^***), and p < 0.0001 (^****). […]

[6] = system: UM-SCC-74A; test: XTT cell viability, UM-SCC-74A; format: cell-based, human
Procedure: as §3, §1, §4, §5

[7] = Combination 2 Gy + 20 μM PM2, 6 h
[8] = Combination 2 Gy + 20 μM PM2, 12 h
[9] = Combination 2 Gy + 20 μM PM2, 24 h
[10] = Combination 2 Gy + 20 μM PM2, 48 h
[11] = 0–20 μM PM2, 0 Gy, wild-type p53, HPV negative, n = 6
[12] = 20 μM PM2, 0 Gy, compared to untreated controls

CC(=O)N[C@H](C(=O)N[C@@H](CO)C(=O)N[C@@H](Cc1ccccc1)C(=O)N[C@]1(C)CCCCCCC=CCCC[C@@](C)(C(N)=O)NC(=O)[C@H](CC(C)C)NC(=O)[C@H](CC(C)C)NC(=O)[C@H](C)NC(=O)[C@H](Cc2c[nH]c3ccccc23)NC(=O)[C@H](Cc2ccc(O)cc2)NC(=O)[C@H](CCC(=O)O)NC1=O)[C@@H](C)O [PM2]
Noxa expression ([1]; 20 μM PM2, 72 h): distinct increases | Noxa increase, combination compared to PM2 therapy alone ([1]; 2 Gy + 20 μM PM2, p ≤ 0.01, n ≥ 3): 4 fold | G2/M-phase ([2]; 20 μM PM2 alone, 6 h): 19.7% | S-phase ([2]; 20 μM PM2 alone, 6 h): 41.6% | G2/M-phase ([2]; 20 μM PM2 alone, 24 h): 16.7% | S-phase ([2]; 20 μM PM2 alone, 24 h): 12.9% | G2/M-phase ([2]; 20 μM PM2 alone, 48 h): 10.8% | S-phase ([2]; 20 μM PM2 alone, 48 h): 17.4% | S-phase reduction / depletion ([2]; 2 Gy + 20 μM PM2): S-phase reduction occurred as early as 12 h post-treatment; also recorded: S-phase depletion at 24 h post-treatment | G2/M-phase [2, 7]: 37.9% | S-phase [2, 7]: 42.9% | G2/M-phase [2, 8]: 39.4% | S-phase [2, 8]: 7.31% | G2/M-phase [2, 9]: 23.8% | S-phase [2, 9]: 2.89% | G2/M-phase [2, 10]: 20.6% | S-phase [2, 10]: 5.37% | PM2 effect [3, 11]: decreased significantly the viability and Yes | average viability reduction [3, 12]: 75% | IC50 ([3]; PM2 added 3 h after 2 Gy EBRT, normalized to 2 Gy, 0 μM PM2, n = 6, read-out: IC50 of the combination treatment): 12 µM | lowest PM2 dose with significant decrease of viability ([3]; PM2 alone): ~ 10 μM | IC50 ([3]; PM2 alone (0 Gy), 4–5 days, n = 6, read-out: IC50 (cell viability)): 14 µM | Significant effect of combination ([3]; PM2 with 2 Gy EBRT, n = 6): Yes | PM2 effect [4, 11]: decreased significantly the viability and Yes | average viability reduction [4, 12]: 90% | IC50 ([4]; PM2 alone (0 Gy), 4–5 days, n = 6): 17 µM | lowest PM2 dose with significant decrease of viability ([4]; PM2 alone, compared with ~10 μM for HCT116 and UM-SCC-74A): slightly higher dose | lowest PM2 dose with significant drop in viability of combination versus PM2-monotherapy ([4]; PM2 with 2 Gy EBRT): 10 µM | Significant effect of combination ([4]; PM2 with 2 Gy EBRT, n = 6): most pronounced sensitivity and Yes | PM2 effect ([5]; 0–20 μM PM2, 0 Gy, single base p53 mutation, HPV negative): did not affect and unaffected and No | Significant effect of combination ([5]; PM2 with 2 Gy EBRT): significantly decreased the viability and significant decrease in viability and Yes | PM2 effect ([6]; 0–20 μM PM2, 0 Gy, wild-type p53, HPV negative, n ≥ 4): decreased significantly the viability and Yes | average viability reduction [6, 12]: 73% | lowest PM2 dose with significant decrease of viability ([6]; PM2 alone): ~ 10 μM | IC50 ([6]; PM2 alone (0 Gy), 4–5 days): 16 µM | Significant effect of combination ([6]; PM2 with 2 Gy EBRT, n ≥ 4): Yes
